Measurements from patent publication US12071436B2, “Anti-parasitic compounds and uses thereof” (Memorial Sloan-Kettering Cancer Center, priority 2016, dated 2024).
Where two headings read alike, the source gives them in different places. One block for each molecule: values may come before it.

How the values were obtained:
[1] = test system: HepG2 human hepatoma cells; experiment: HepG2 cytotoxicity, MTS cell proliferation assay; type: cell-based; details: 48 h, n=1
Experimental: (§1) Select compounds described herein were evaluated for structure-activity analyses for anti-plasmodial activity in vitro. For Dd2 EC50 (M), calculations were for n=3. For HepG2 EC50 (M), calculations were for n=1. For the human microsomal stability determination, t was 60 minutes.
Selected compounds were evaluated for cytotoxicity using HepG2 human hepatoma cells. A 384-well clear bottom plate was seeded with 2,500 cells/well and incubated for 24 h. Serial dilutions of the compound (were added to the plate and plates were incubated for an additional 48 h. Viability of cells were assessed by MTS [(3-(4,5-dimethylthiazol-2-yl)-5-(3-carboxymethoxyphenyl)-2-(4-sulfophenyl)-2H-tetrazolium) cell proliferation assay (CellTiter 96® Aqueous non-radioactive cell proliferation assay, Promega) (See Cory et al., Cancer Communications, 3, 1991, p. 207-212).

P. falciparum Dd2 = experiment: Anti-plasmodial growth inhibition, SYBR green I-based DNA quantification; type: cell-based; details: Plasmodium falciparum, 72 h incubation, n=3
Experimental: as §1
Different dilutions of the compound in RPMI 1640 (Life Technologies) from a stock of 10 mM in dimethyl sulfoxide (DMSO) were added to the culture at a 1% parasitemia and 2% hematocrit in 96-well black plates (Santa Cruz Biotechnology). Maximum DMSO concentration in the culture never exceeded 0.25%. Chloroquine at 1 μM was used as a positive control to determine the baseline value. Following 72 h incubation at 37° C., the ability of the compounds to inhibit growth of the parasite was determined by a SYBR green I-based DNA quantification assay (See Bennett et al., 2004, Chemother. 48, 1807-1810; see also Johnson et al., 2007, Antimicrob. Agents. Chemother. 51, 1926-1933; Smilkstein et al., 2004, Antimicrob. Agents. Chemother. 48, 1803-1806). EC50 was calculated (n=3) from a dose response curve that was generated from a concentration range of 0-20 μM using GraphPad Prism v5.0.

[2] = Plasma pharmacokinetics and liver distribution study in female BALB/c mice; type: in vivo, mouse; details: for AUC(0-inf) / Tmax / half-life / Cmax: female, BALB/c, mouse
Experimental: A plasma pharmacokinetics and liver distribution study of selected compounds, including Pyrrolopyridine-008 (2015-foleyc-216), Pyrrolopyridine-D20-ent (2015-foleyc-217), and Pyrrolopyridine-M03 (2015-foleyc-218), in female BALB/c mice was conducted following a single intraperitoneal and oral administration. […] The blood samples were collected from a set of […] mice at each time point in labeled micro centrifuge tube containing K2EDTA as anticoagulant. Plasma samples were separated by centrifugation at 4000 rpm for 10 min and stored below −70° C. until bioanalysis. After collection of blood sample, animals were humanely euthanized by carbon dioxide asphyxiation to collect liver from Group 1 and Group 2 at all the time points. The collected tissues were rinsed in PBS and were homogenized with nine times of liver weight in ice cold phosphate buffer saline (pH 7.4) and stored below −70° C. until bio-analysis. Total homogenate volume was ten times the tissue weight. All samples were processed for analysis by protein precipitation using acetonitrile and analyzed with fit-for-purpose LC-MS/MS method (LLOQ: 2.01 ng/mL for plasma and 50.30 ng/g for liver). Pharmacokinetic parameters were calculated using the non-compartmental analysis tool of Phoenix WinNonlin® (Version 6.3).

[3] = ip, Dose: 100 mg/kg, liver, read-out: PK (ip, plasma/liver) AUCinf, liver
[4] = ip, Dose: 100 mg/kg, liver, read-out: PK (ip, plasma/liver) Tmax, liver
[5] = ip, Dose: 100 mg/kg, liver, read-out: PK (ip, plasma/liver) t1/2, liver (converted)
[6] = ip, Dose: 100 mg/kg, plasma, read-out: PK (ip, plasma/liver) AUCinf, plasma
[7] = ip, Dose: 100 mg/kg, plasma, read-out: PK (ip, plasma/liver) Cmax, plasma
[8] = ip, Dose: 100 mg/kg, plasma, read-out: PK (ip, plasma/liver) Tmax, plasma
[9] = ip, Dose: 100 mg/kg, plasma, read-out: PK (ip, plasma/liver) t1/2, plasma (converted)
[10] = po, Dose: 100 mg/kg, liver, read-out: PK (po, plasma/liver) Area under the curve (AUCinf), liver
[11] = po, Dose: 100 mg/kg, liver, read-out: PK (po, plasma/liver) Tmax, liver
[12] = po, Dose: 100 mg/kg, liver, read-out: PK (po, plasma/liver) t1/2, liver (converted)
[13] = po, Dose: 100 mg/kg, plasma, read-out: PK (po, plasma/liver) Area under the curve (AUCinf), plasma
[14] = po, Dose: 100 mg/kg, plasma, read-out: PK (po, plasma/liver) Cmax, plasma
[15] = po, Dose: 100 mg/kg, plasma, read-out: PK (po, plasma/liver) Tmax, plasma
[16] = po, Dose: 100 mg/kg, plasma, read-out: PK (po, plasma/liver) t1/2, plasma (converted)

EC50 (P. falciparum Dd2): > 25 µM
SMILES: CC(C)(C)[S@@+]([O-])N1Cc2cc(C(=O)NCC(F)(F)F)nc(-c3cccc(-c4cc5ccccc5o4)c3)c2[C@H]1CCO [2015-foleyc-226, (R)-4-(3-(benzofuran-2-yl)phenyl)-2-((R)-tert-butylsulfinyl)-3-(2-hydroxyethyl)-N-(2,2,2-trifluoroethyl)-2,3-dihydro-1H-pyrrolo[3,4-c]pyridine-6-carboxamide]
EC50 [1]: > 100 µM

EC50 (P. falciparum Dd2): 5.84 ± 0.94 µM
SMILES: CC(C)(C)[S@@+]([O-])N1Cc2cc(C(=O)NCC(F)(F)F)nc(-c3cccc(-c4cccnc4)c3)c2[C@H]1CCO [2015-foleyc-237, (R)-2-((R)-tert-butylsulfinyl)-3-(2-hydroxyethyl)-4-(3-(pyridin-3-yl)phenyl)-N-(2,2,2-trifluoroethyl)-2,3-dihydro-1H-pyrrolo[3,4-c]pyridine-6-carboxamide]
EC50 [1]: > 100 µM

EC50 (P. falciparum Dd2): 4.99 ± 0.59 µM
SMILES: CC(C)NC(=O)N1Cc2cc(C(=O)NCc3ccc4c(c3)OCO4)nc(-c3cccc(-c4cc5ccccc5o4)c3)c2[C@H]1CCO [2015-foleyc-241, (R)-N^6-(benzo[d][1,3]dioxol-5-ylmethyl)-4-(3-(benzofuran-2-yl)phenyl)-3-(2-hydroxyethyl)-N^2-isopropyl-1,3-dihydro-2H-pyrrolo[3,4-c]pyridine-2,6-dicarboxamide]
EC50 [1]: > 100 µM

EC50 (P. falciparum Dd2): 1.48 ± 0.14 µM
SMILES: CC(C)(C)[S@@+]([O-])N1Cc2cc(C(N)=O)nc(-c3cccc(-c4cccnc4)c3)c2[C@H]1CCO [2015-foleyc-247]
EC50 [1]: > 100 µM

EC50 (P. falciparum Dd2): 0.86 ± 0.08 µM
SMILES: CC(C)(C)[S@+]([O-])N1Cc2cc(C(=O)NCc3ccc4c(c3)OCO4)nc(-c3cccc(-c4cccnc4)c3)c2[C@@H]1CCO [ent-Tan003-008]

The next lines start with the molecule.

SMILES: CC(C)(C)[S@@+]([O-])N1Cc2cc(C(=O)NCc3ccc4c(c3)OCO4)nc(-c3cccc(-c4cccnc4)c3)c2C1 [2015-foleyc-212, (R)-N-(benzo[d][1,3]dioxol-5-ylmethyl)-2-(tert-butylsulfinyl)-4-(3-(pyridin-3-yl)phenyl)-2,3-dihydro-1H-pyrrolo[3,4-c]pyridine-6-carboxamide]
EC50 [1]: > 100 µM | EC50 (P. falciparum Dd2): > 25 µM

SMILES: CC(C)(C)[S@@+]([O-])N1Cc2cc(C(=O)NCc3ccccc3F)nc(-c3cccc(-c4cccnc4)c3)c2C1 [2015-foleyc-213, (R)-2-(tert-butylsulfinyl)-N-(2-fluorobenzyl)-4-(3-(pyridin-3-yl)phenyl)-2,3-dihydro-1H-pyrrolo[3,4-c]pyridine-6-carboxamide]
EC50 [1]: > 100 µM | EC50 (P. falciparum Dd2): > 25 µM

SMILES: CC(C)(C)[S@@+]([O-])N1Cc2cc(C(=O)NCc3ccc4c(c3)OCO4)nc(-c3cccc(-c4cc5ccccc5o4)c3)c2[C@H]1CCO [2015-foleyc-219, (R)-N-(benzo[d][1,3]dioxol-5-ylmethyl)-4-(3-(benzofuran-2-yl)phenyl)-2-((R)-tert-butylsulfinyl)-3-(2-hydroxyethyl)-2,3-dihydro-1H-pyrrolo[3,4-c]pyridine-6-carboxamide]
EC50 [1]: > 100 µM | EC50 (P. falciparum Dd2): 1.39 ± 0.13 µM

SMILES: CC(C)(C)[S@@+]([O-])N1Cc2cc(C(=O)NCc3ccccc3F)nc(-c3cccc(-c4cc5ccccc5o4)c3)c2[C@H]1CCO [2015-foleyc-220, (R)-4-(3-(benzofuran-2-yl)phenyl)-2-((R)-tert-butylsulfinyl)-N-(2-fluorobenzyl)-3-(2-hydroxyethyl)-2,3-dihydro-1H-pyrrolo[3,4-c]pyridine-6-carboxamide]
EC50 [1]: > 100 µM | EC50 (P. falciparum Dd2): > 25 µM

SMILES: CC(C)NC(=O)N1Cc2cc(C(=O)NCC(F)(F)F)nc(-c3cccc(-c4cc5ccccc5o4)c3)c2[C@H]1CCO [drawing 328]
Relative Bioavailability, Frel (AUCinf po / AUCinf ip) ([2]; Dose: 50 mg/kg): 57% | AUC(0-inf) ([2]; ip, Dose: 50 mg/kg, liver, read-out: PK (ip, plasma/liver) AUCinf, liver): 186 µM·h | Tmax ([2]; ip, Dose: 50 mg/kg, liver, read-out: PK (ip, plasma/liver) Tmax, liver): 0.1 h | half-life ([2]; ip, Dose: 50 mg/kg, liver, read-out: PK (ip, plasma/liver) t1/2, liver (converted)): 2.2 h | AUC(0-inf) ([2]; ip, Dose: 50 mg/kg, plasma, read-out: PK (ip, plasma/liver) AUCinf, plasma): 52.7 µM·h | Cmax ([2]; ip, Dose: 50 mg/kg, plasma, read-out: PK (ip, plasma/liver) Cmax, plasma): 14 µM | Tmax ([2]; ip, Dose: 50 mg/kg, plasma, read-out: PK (ip, plasma/liver) Tmax, plasma): 1 h | half-life ([2]; ip, Dose: 50 mg/kg, plasma, read-out: PK (ip, plasma/liver) t1/2, plasma (converted)): 1.2 h | AUC(0-inf) ([2]; po, Dose: 50 mg/kg, liver, read-out: PK (po, plasma/liver) Area under the curve (AUCinf), liver): 108 µM·h | Tmax ([2]; po, Dose: 50 mg/kg, liver, read-out: PK (po, plasma/liver) Tmax, liver): 0.25 h | half-life ([2]; po, Dose: 50 mg/kg, liver, read-out: PK (po, plasma/liver) t1/2, liver (converted)): 3.1 h | AUC(0-inf) ([2]; po, Dose: 50 mg/kg, plasma, read-out: PK (po, plasma/liver) Area under the curve (AUCinf), plasma): 29.9 µM·h | Cmax ([2]; po, Dose: 50 mg/kg, plasma, read-out: PK (po, plasma/liver) Cmax, plasma): 10.9 µM | Tmax ([2]; po, Dose: 50 mg/kg, plasma, read-out: PK (po, plasma/liver) Tmax, plasma): 0.25 h | half-life ([2]; po, Dose: 50 mg/kg, plasma, read-out: PK (po, plasma/liver) t1/2, plasma (converted)): 8.2 h | PK (ip, plasma/liver) Cmax, liver ([2]; ip, Dose: 50 mg/kg, liver): 58.6 µM | PK (po, plasma/liver) Cmax, liver ([2]; po, Dose: 50 mg/kg, liver): 53.8 µM

SMILES: CC(C)(C)[S@@+]([O-])N1Cc2cc(C(=O)NCc3ccc4c(c3)OCO4)nc(-c3cccc(-c4cccnc4)c3)c2[C@H]1CCO [drawing 329]
Relative Bioavailability, Frel (AUCinf po / AUCinf ip) ([2]; Dose: 100 mg/kg): 49% | AUC(0-inf) [2, 3]: 667 µM·h | Tmax [2, 4]: 0.5 h | half-life [2, 5]: 3.5 h | AUC(0-inf) [2, 6]: 158 µM·h | Cmax [2, 7]: 33.4 µM | Tmax [2, 8]: 0.5 h | half-life [2, 9]: 2.4 h | AUC(0-inf) [2, 10]: 238 µM·h | Tmax [2, 11]: 4 h | half-life [2, 12]: 16.9 h | AUC(0-inf) [2, 13]: 77.1 µM·h | Cmax [2, 14]: 27.6 µM | Tmax [2, 15]: 1 h | half-life [2, 16]: 1.1 h | PK (ip, plasma/liver) Cmax, liver ([2]; ip, Dose: 100 mg/kg, liver): 87.6 µM | PK (po, plasma/liver) Cmax, liver ([2]; po, Dose: 100 mg/kg, liver): 39.6 µM

SMILES: CC(C)(C)[S@@+]([O-])N1Cc2cc(C(=O)NCc3ccccc3F)nc(-c3cccc(-c4cccnc4)c3)c2[C@H]1CCO [drawing 330]
Relative Bioavailability, Frel (AUCinf po / AUCinf ip) ([2]; Dose: 100 mg/kg): 22% | AUC(0-inf) [2, 3]: 306 µM·h | Tmax [2, 4]: 0.25 h | half-life [2, 5]: 4.6 h | AUC(0-inf) [2, 6]: 168 µM·h | Cmax [2, 7]: 72.6 µM | Tmax [2, 8]: 1 h | half-life [2, 9]: 1.9 h | AUC(0-inf) [2, 10]: 125 µM·h | Tmax [2, 11]: 0.5 h | half-life [2, 12]: 6.4 h | AUC(0-inf) [2, 13]: 36.7 µM·h | Cmax [2, 14]: 56.4 µM | Tmax [2, 15]: 0.5 h | half-life [2, 16]: 2.1 h | PK (ip, plasma/liver) Cmax, liver ([2]; ip, Dose: 100 mg/kg, liver): 111.3 µM | PK (po, plasma/liver) Cmax, liver ([2]; po, Dose: 100 mg/kg, liver): 49.2 µM
